Patent US10806744B2, “Edible composition” (Conopco, Inc., priority 2015, dated 2020)
“And” between values parts separate entries of the source, which are not always exact repeats. Equal values may be shown once.

How the values were obtained:
SGLT1 [1] = biological target: T1, SGLT1 (Homo sapiens, UniProt P13866); conditions: as disclosed in Table 1 of WO 2014/086632; cited from earlier work
T1 sequence (P13866 1-664): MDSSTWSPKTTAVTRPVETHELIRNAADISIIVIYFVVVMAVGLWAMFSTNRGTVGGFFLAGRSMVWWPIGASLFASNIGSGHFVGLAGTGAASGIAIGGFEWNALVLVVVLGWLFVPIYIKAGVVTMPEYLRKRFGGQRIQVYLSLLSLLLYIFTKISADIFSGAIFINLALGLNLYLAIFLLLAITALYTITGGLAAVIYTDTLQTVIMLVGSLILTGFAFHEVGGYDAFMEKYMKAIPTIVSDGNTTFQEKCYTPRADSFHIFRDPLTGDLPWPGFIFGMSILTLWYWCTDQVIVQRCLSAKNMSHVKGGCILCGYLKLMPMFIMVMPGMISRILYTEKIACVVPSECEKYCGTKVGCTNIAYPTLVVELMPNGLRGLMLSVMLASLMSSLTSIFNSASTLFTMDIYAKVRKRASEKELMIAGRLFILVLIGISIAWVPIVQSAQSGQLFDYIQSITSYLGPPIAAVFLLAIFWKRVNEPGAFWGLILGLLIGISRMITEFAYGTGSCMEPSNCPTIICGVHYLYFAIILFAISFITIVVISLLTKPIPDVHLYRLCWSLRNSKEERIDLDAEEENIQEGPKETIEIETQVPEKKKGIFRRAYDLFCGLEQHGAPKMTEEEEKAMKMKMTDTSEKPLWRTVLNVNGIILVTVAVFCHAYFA

GLUT2 = biological target: T2, GLUT2 (Homo sapiens, UniProt P11168); assay: Glucose transport inhibitor cell screening assay, 25 mM D-glucose for 30 minutes; conditions: for inhibition at 300 µM: Caco-2, read-out: % Glucose transport inhibiton 25 mM; for identified as inhibitors of GLUT2: Caco-2 cell assay
T2 sequence (P11168 1-524): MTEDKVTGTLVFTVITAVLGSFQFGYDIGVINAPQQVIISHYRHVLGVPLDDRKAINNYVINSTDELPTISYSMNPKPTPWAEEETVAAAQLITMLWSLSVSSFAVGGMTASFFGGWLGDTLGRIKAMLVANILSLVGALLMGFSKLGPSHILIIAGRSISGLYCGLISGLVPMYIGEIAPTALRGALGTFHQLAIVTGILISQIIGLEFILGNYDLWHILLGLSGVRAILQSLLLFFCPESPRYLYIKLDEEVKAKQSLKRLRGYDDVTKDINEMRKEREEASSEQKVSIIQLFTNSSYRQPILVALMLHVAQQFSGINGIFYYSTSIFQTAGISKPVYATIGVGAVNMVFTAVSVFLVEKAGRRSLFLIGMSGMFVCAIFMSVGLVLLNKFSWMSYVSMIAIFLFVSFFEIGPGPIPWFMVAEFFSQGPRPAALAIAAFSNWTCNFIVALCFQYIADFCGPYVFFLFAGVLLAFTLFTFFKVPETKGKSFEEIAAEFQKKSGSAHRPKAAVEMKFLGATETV
Description: (§1) Human epithelial colorectal adenocarcinoma (Caco-2) cells were obtained from the American Type Culture Collection (ATCC) and cultured in Growth Medium consisting of Dulbecco's modified Eagle's medium (containing Glutamax-1, 4.5 g/L D-glucose and 25 mM 4-(2-hydroxyethyl)-1-piperazine ethanesulphonic acid (Hepes) (Invitrogen)), 10% foetal bovine serum (Sigma), 1% non-essential amino acids (Invitrogen) and 1 mM sodium pyruvate (Sigma)). The cells were routinely passaged at approximately 80% confluence using TrypLE™ Express Stable Trypsin-Like Enzyme (Invitrogen) to detach the cells, and seeded at approximately 114 cells per mm^2 in fresh tissue culture flasks. Only cells between the passage numbers 45 and 49 were used for experiments.
(§2) Corning® HTS Transwell® 96 well permeable insert supports (Sigma) were collagen coated with 40 μl of 50 μg/ml rat tail collagen type I (BD Biosciences) in 0.02 M acetic acid for one hour at room temperature under sterile conditions. The inserts were washed twice in phosphate buffered saline (PBS (Invitrogen)) and the Caco-2 cells seeded into the inserts at 1.0×10^6 cell/ml (75 μl per insert) in Growth Medium and 30 ml of Growth Medium added to the feeder plate below. The cells were left to attach to the collagen matrix and form monolayers over 48 hours at 37° C., 5% CO2. Both inserts and feeder plate were washed in PBS and the cells incubated with BD Entero-STIM™ Enterocyte Differentiation Medium containing MITO+™ Serum Extender solution (both BD Biosciences), 75 μl per insert and 30 ml in the feeder plate, for a further 48 hours at 37° C., 5% CO2.
(§3) Differentiated cell monolayers were washed gently in Dulbecco's Phosphate Buffered Saline containing CaCl2 and MgCl2 (PBS(+) (Invitrogen)) and the inserts transferred to a new Corning® HTS Transwell®-96 well receiver plate (Sigma). The cells were incubated with fresh PBS(+) (75 μl per insert and 225 μl per well) for 60 minutes at 37° C., 5% CO2. The PBS(+) was gently aspirated and replaced with 75 μl per insert of either 5 mM D-glucose (Sigma)±test compound or 25 mM D-glucose±test compound in triplicate and 225 μl per well of PBS(+) quickly added to each well. The 5 mM glucose wells and the 25 mM glucose wells were incubated at 37° C., 5% CO2 for 15 minutes and 30 minutes, respectively. […] The cell inserts were transferred to a new receiver plate, the supernatant gently aspirated from the cells and replaced with 100 μl of 100 μM of Lucifer Yellow (Sigma) solution to confirm the integrity of the monolayers. 225 μl of PBS(+) was added to each well and incubated at 37° C., 5% CO2 for 1 hour. The cell inserts were then discarded and the permeability of the membranes to Lucifer Yellow checked by measuring the fluorescence of the samples at 485 nm (excitation) and 530 nm (emission) on a Spectramax Gemini EM fluorescence microplate reader.
(§4) The amount of glucose transported across the cell monolayers was measured using a glucose assay based on Invitrogen's Amplex Red Glucose/Glucose oxidase Assay Kit. Briefly, 50 μl of each test sample was transferred to a black sided/clear bottom 96-well plate (Greiner Bio-One) to which 100 μl of reaction buffer (0.5 μl 10 mM Ampliflu Red, 1 μl 10 U/ml Horse Radish peroxidase, 1 μl 100 U/ml glucose oxidase and 97.5 μl PBS (all Sigma)) was added. After 10 minutes incubation at room temperature, the fluorescence of the samples was measured at 530 nm (excitation) and 590 nm (emission) on a Spectramax Gemini EM fluorescence microplate reader and the glucose concentration extrapolated from a standard curve.
(§5) At higher D-glucose concentrations, the SGLT1 transporter becomes saturated and consequently the majority of glucose transport across the monolayer is driven by the low affinity, high capacity GLUT2 transporter that is targeted to the apical membrane only following an initial SGLT1-dependent transport of glucose.

SGLT1 and GLUT2 = assay: Assigned class of transporter inhibited, from Caco-2 screening at 5 mM and 25 mM D-glucose; assay type: cell-based, human; conditions: from % inhibition at 5 mM and 25 mM D-glucose; compound 300 μM
[2] = tested on: glucose transport across differentiated Caco-2 cell monolayers; assay: Glucose transport cell model: 5 mM D-glucose 15 minutes, then 25 mM for 45 minutes, cumulative glucose transport; assay type: cell-based, human; design: unit not given here; conditions: duplicate
Description: Caco-2 cells were cultured and routinely passaged as described in Example 1.
After the last incubation, all of the retained PBS(+) from each step (i.e. at 15, 30, 45 and 60 minutes) was assayed for glucose levels as described in Example 1, and the total cumulative glucose transport calculated. The localised changes in luminal glucose concentrations described and illustrated in example 1 are mimicked in-vitro through an initial short incubation of differentiated Caco-2 cells with a low level of D-glucose (5 mM for 15 minutes) immediately followed by a sustained incubation with a high level of D-glucose (final concentration of 25 mM for 45 minutes).
In the above table, every test pairing of a homisoflavonoid (HIF) and a flavonoid monoglucoside (FM) has 5 values reported: • 1. No Compound (NC)+NC • 2.
Synergy is achieved when the inhibition caused by the combination of HIF and FM is greater than the sum of the inhibition due to HIF alone added to the inhibition due to FM alone.

SGLT1 [3] = biological target: T1, SGLT1; assay: Glucose transport inhibitor cell screening assay, 5 mM D-glucose for 15 minutes; conditions: for inhibition at 300 µM: Caco-2, read-out: % Glucose transport inhibiton 5 mM
Description: as §1, §2, §3, §4, §5

[4] = flavonoid monoglucoside 300 uM alone, added at 5 mM glucose step only (NC at 25 mM)
[5] = flavonoid monoglucoside 300 uM alone, added at 25 mM glucose step only (NC at 5 mM)

O=c1c(O)c(-c2ccc(O)cc2)oc2cc(O[C@@H]3O[C@H](CO)[C@@H](O)[C@H](O)[C@H]3O)cc(O)c12 [kaempferol-7-glucoside]
SGLT1 inhibitory activity (SGLT1 [1]): SGLT1 inhibitors

O=c1c(O[C@@H]2O[C@H](CO)[C@@H](O)[C@H](O)[C@H]2O)c(-c2ccc(O)c(O)c2)oc2cc(O)cc(O)c12 [quercetin-3-glucoside]
SGLT1 inhibitory activity (SGLT1 [1]): SGLT1 inhibitors

O=C(CCc1ccc(O)cc1)c1c(O)cc(O)cc1O[C@@H]1O[C@H](CO)[C@@H](O)[C@H](O)[C@H]1O [Phloridzin, reference compound]
inhibition at 300 µM (GLUT2): 14.3 ± 0.84%

O=c1c(O)c(-c2ccc(O[C@@H]3O[C@H](CO)[C@@H](O)[C@H](O)[C@H]3O)c(O)c2)oc2cc(O)cc(O)c12 [quercetin-4-glucoside]
SGLT1 inhibitory activity (SGLT1 [1]): SGLT1 inhibitors

O=c1c(O[C@@H]2O[C@H](CO)[C@@H](O)[C@H](O)[C@H]2O)c(-c2ccc(O[C@@H]3O[C@H](CO)[C@@H](O)[C@H](O)[C@H]3O)c(O)c2)oc2cc(O)cc(O)c12 [quercetin-3,4′-diglucoside]
SGLT1 inhibitory activity (SGLT1 [1]): destroys this inhibitory action

OC[C@H]1O[C@@H](Oc2cc3c(O)cc(O)cc3[o+]c2-c2ccc(O)c(O)c2)[C@H](O)[C@@H](O)[C@@H]1O [cyanidin-3-glucoside]
SGLT1 inhibitory activity (SGLT1 [1]): SGLT1 inhibitors

Cc1c(O)c(C)c2c(c1O)C(=O)C(Cc1ccc(O)cc1)CO2 (stereo not shown) [EA3, 5,7-dihydroxy-3-(4′-hydroxybenzyl)-6,8-dimethylchroman-4-one]
Class (assigned class of transporter inhibited) (SGLT1 and GLUT2): GLUT2 (GLUT2 inhibitors having ≥20% inhibition at both 5 mM and 25 mM D-glucose levels) | Cumulative (AVE) glucose transport ([2]; homoisoflavonoid 2.5 uM alone, added at 25 mM glucose step (NC at 5 mM)): 291.33 | inhibition at 300 µM (SGLT1 [3]): 91.15 ± 0.46% | inhibition at 300 µM (GLUT2): 67.4 ± 5.87% | identified as inhibitors of GLUT2 (GLUT2): inhibitors of GLUT2

OC[C@H]1O[C@@H](Oc2cc3c(O)cc(O)cc3[o+]c2-c2ccc(O)cc2)[C@H](O)[C@@H](O)[C@@H]1O [pelargonidin-3-glucoside]
SGLT1 inhibitory activity (SGLT1 [1]): SGLT1 inhibitors

O=c1cc(-c2ccc(O)c(O)c2)oc2cc(O[C@@H]3O[C@H](CO)[C@@H](O)[C@H](O)[C@H]3O)cc(O)c12 [Luteolin-7-glucoside]
Cumulative (AVE) glucose transport ([2]; flavonoid monoglucoside 300 uM alone, added at 5 mM glucose step only (NC at 25 mM), listed as L7G): 220.63 and 301.4 | Cumulative (AVE) glucose transport ([2]; flavonoid monoglucoside 300 uM alone, added at 25 mM glucose step only (NC at 5 mM), listed as L7G): 256.73 and 281.9 | SGLT1 inhibitory activity (SGLT1 [1]): SGLT1 inhibitors

C[C@@H]1O[C@@H](OC[C@H]2O[C@@H](Oc3cc4c(O)cc(O)cc4[o+]c3-c3ccc(O)c(O)c3)[C@H](O)[C@@H](O)[C@@H]2O)[C@H](O)[C@H](O)[C@H]1O [cyanidin-3-rutinoside]
SGLT1 inhibitory activity (SGLT1 [1]): absence of SGLT1 inhibitory activity

O=C1CC(c2ccc(O)c(O)c2)Oc2cc(O[C@@H]3O[C@H](CO)[C@@H](O)[C@H](O)[C@H]3O)cc(O)c21 (stereo partly shown) [eriodictiol-7-glucoside]
SGLT1 inhibitory activity (SGLT1 [1]): SGLT1 inhibitors

OC[C@H]1O[C@@H](Oc2cc3c(O)cc(O)cc3[o+]c2-c2cc(O)c(O)c(O)c2)[C@H](O)[C@@H](O)[C@@H]1O.[Cl-] [Delphinidin-3-O-glucoside chloride, delphinidin-3-O-glucoside chloride]
Class (assigned class of transporter inhibited) (SGLT1 and GLUT2): SGLT1 | Cumulative (AVE) glucose transport [2, 4]: 220.62 | Cumulative (AVE) glucose transport [2, 5]: 227.60 | identified as inhibitors of SGLT1 (SGLT1 [3]; Caco-2 cell assay): inhibitors of SGLT1 | % Glucose transport inhibiton 5 mM (SGLT1 [3]; compound 300 μM in DMSO, 5 mM D-glucose, 15 minutes, Caco-2 monolayer, triplicate): 41.00 ± 3.60% | % Glucose transport inhibiton 25 mM (GLUT2; compound 300 μM in DMSO, 25 mM D-glucose, 30 minutes, Caco-2 monolayer, triplicate): 12.82 ± 1.19%

O=c1cc(-c2ccc(O)cc2)oc2c([C@@H]3O[C@H](CO)[C@@H](O)[C@H](O)[C@H]3O)c(O)cc(O)c12 [Apigenin-8-C-glucoside]
Cumulative (AVE) glucose transport [2, 4]: 291.89 | Cumulative (AVE) glucose transport [2, 5]: 287.58 | SGLT1 inhibitory activity (SGLT1 [1]): SGLT1 inhibitors

COc1c(O)c(C)c(O)c2c1OCC(Cc1ccc(O)cc1)C2=O (stereo not shown) [EA2, 5,7-dihydroxy-3-(4′-hydroxybenzyl)-6-methyl-8-methoxychroman-4-one]
Class (assigned class of transporter inhibited) (SGLT1 and GLUT2): GLUT2 (GLUT2 inhibitors having ≥20% inhibition at both 5 mM and 25 mM D-glucose levels) | Cumulative (AVE) glucose transport ([2]; homoisoflavonoid 10 uM alone, added at 25 mM glucose step (NC at 5 mM)): 283.98 | inhibition at 300 µM (SGLT1 [3]): 89.9 ± 0.06% | inhibition at 300 µM (GLUT2): 63 ± 2.94% | identified as inhibitors of GLUT2 (GLUT2): inhibitors of GLUT2

O=c1c(-c2ccc(O)cc2)coc2c([C@@H]3O[C@H](CO)[C@@H](O)[C@H](O)[C@H]3O)c(O)ccc12 [daidzein-8-C-glucoside]
SGLT1 inhibitory activity (SGLT1 [1]): SGLT1 inhibitors

COc1ccc(C[C@@H]2COc3c(C)c(O)c(C)c(O)c3C2=O)cc1 [MOB, methylophiopogonanone B]
Class (assigned class of transporter inhibited) (SGLT1 and GLUT2): GLUT2 (GLUT2 inhibitors having ≥20% inhibition at both 5 mM and 25 mM D-glucose levels) | Cumulative (AVE) glucose transport ([2]; homoisoflavonoid 5 uM alone, added at 25 mM glucose step (NC at 5 mM)): 200.59 | inhibition at 300 µM (SGLT1 [3]): 46.2 ± 2.04% | inhibition at 300 µM (GLUT2): 30.6 ± 3.2% | identified as inhibitors of GLUT2 (GLUT2): inhibitors of GLUT2

O=C1CC(c2ccc(O)cc2)Oc2cc(O[C@@H]3O[C@H](CO)[C@@H](O)[C@H](O)[C@H]3O)cc(O)c21 (stereo partly shown) [Naringenin-7-O-glucoside]
Cumulative (AVE) glucose transport [2, 4]: 215.32 | Cumulative (AVE) glucose transport [2, 5]: 236.65 | SGLT1 inhibitory activity (SGLT1 [1]): SGLT1 inhibitors

OC[C@H]1O[C@@H](Oc2ccc(O)cc2)[C@H](O)[C@@H](O)[C@@H]1O [arbutin]
SGLT1 inhibitory activity (SGLT1 [1]): lack of SGLT1 inhibitory activity

O=c1c(O[C@@H]2O[C@H](CO)[C@@H](O)[C@H](O)[C@H]2O)c(-c2ccc(O)cc2)oc2cc(O)cc(O)c12 [Kaempferol-3-glucoside]
Cumulative (AVE) glucose transport ([2]; flavonoid monoglucoside 150 uM alone, added at 5 mM glucose step only (NC at 25 mM)): 297.72 | Cumulative (AVE) glucose transport ([2]; flavonoid monoglucoside 150 uM alone, added at 25 mM glucose step only (NC at 5 mM)): 290.49 | SGLT1 inhibitory activity (SGLT1 [1]): SGLT1 inhibitors

OC[C@H]1O[C@@H](Oc2cc3c(O)cc(O)cc3[o+]c2-c2cc(O)c(O)c(O)c2)[C@H](O)[C@@H](O)[C@@H]1O [delphinidin-3-glucoside]
SGLT1 inhibitory activity (SGLT1 [1]): SGLT1 inhibitors

COc1cc(-c2[o+]c3cc(O)cc(O)c3cc2O[C@@H]2O[C@H](CO)[C@@H](O)[C@H](O)[C@H]2O)cc(OC)c1O [malvidin-3-O-glucoside]
SGLT1 inhibitory activity (SGLT1 [1]): SGLT1 inhibitors

O=c1c(-c2ccc(O)cc2)coc2cc(O[C@@H]3O[C@H](CO)[C@@H](O)[C@H](O)[C@H]3O)ccc12 [daidzein-7-glucoside]
SGLT1 inhibitory activity (SGLT1 [1]): SGLT1 inhibitors

COc1cc(-c2[o+]c3cc(O)cc(O)c3cc2O[C@@H]2O[C@H](CO)[C@H](O)[C@H](O)[C@H]2O)cc(OC)c1O [malvidin-3-O-galactoside]
SGLT1 inhibitory activity (SGLT1 [1]): absence of SGLT1 inhibitory activity

O=c1cc(-c2ccc(O)cc2)oc2cc(OC3O[C@H](CO)[C@@H](O)[C@H](O)[C@H]3O)cc(O)c12 (stereo partly shown) [apigenin-7-glucoside]
SGLT1 inhibitory activity (SGLT1 [1]): SGLT1 inhibitors
